IC50 data for one compound are collected here from ChEMBL document CHEMBL4418318, “Dynamin-1-like protein inhibitors” (2018).

Where only a bound is given, the exact number is not on record here.

This assay deals with Dynamin-1-like protein (Homo sapiens, UniProt O00429). As to the kind of experiment: Inhibition of DRP1 (unknown origin) using GTP as substrate incubated for 20 mins by malachite green reagent based colorimetric assay.
Chain of Dynamin-1-like protein (O00429 whole entry): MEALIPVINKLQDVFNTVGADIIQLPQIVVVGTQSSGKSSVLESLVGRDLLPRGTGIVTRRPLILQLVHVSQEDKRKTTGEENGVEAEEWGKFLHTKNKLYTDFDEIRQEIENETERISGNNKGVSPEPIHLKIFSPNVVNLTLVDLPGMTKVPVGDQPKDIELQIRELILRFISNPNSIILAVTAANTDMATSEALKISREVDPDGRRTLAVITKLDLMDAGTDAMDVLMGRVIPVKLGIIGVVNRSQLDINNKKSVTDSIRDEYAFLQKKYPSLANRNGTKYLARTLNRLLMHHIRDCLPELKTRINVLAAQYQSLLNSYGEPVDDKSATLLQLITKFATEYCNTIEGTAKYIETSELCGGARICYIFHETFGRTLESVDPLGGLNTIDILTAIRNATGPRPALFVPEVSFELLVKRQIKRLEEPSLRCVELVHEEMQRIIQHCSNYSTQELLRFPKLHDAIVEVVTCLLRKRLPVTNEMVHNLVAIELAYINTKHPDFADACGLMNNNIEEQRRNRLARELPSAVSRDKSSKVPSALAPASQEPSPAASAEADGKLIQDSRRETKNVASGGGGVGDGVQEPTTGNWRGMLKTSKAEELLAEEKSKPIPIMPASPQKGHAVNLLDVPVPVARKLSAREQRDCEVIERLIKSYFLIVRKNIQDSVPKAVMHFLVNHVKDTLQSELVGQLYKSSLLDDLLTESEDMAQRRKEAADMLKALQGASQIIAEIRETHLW

For orientation: IC50 means the concentration at which inhibition is half-maximal. As to `O=C(O)c1ccc(NC(=O)c2cc(Br)cn2Cc2csc(N3CCCCC3)n2)cc1`, the IC50 is greater than 100 µM.
